Structures are written as SMILES.

One assay deals with T1, chimeric human H3 receptor (Homo sapiens, UniProt Q9Y5N1, E19D).
T1 construct: made in house; host or cells: Sf9 insect cells (baculovirus infection); P2 membrane preparation
T1 sequence (Q9Y5N1 with tags, fused parts or gaps E19D): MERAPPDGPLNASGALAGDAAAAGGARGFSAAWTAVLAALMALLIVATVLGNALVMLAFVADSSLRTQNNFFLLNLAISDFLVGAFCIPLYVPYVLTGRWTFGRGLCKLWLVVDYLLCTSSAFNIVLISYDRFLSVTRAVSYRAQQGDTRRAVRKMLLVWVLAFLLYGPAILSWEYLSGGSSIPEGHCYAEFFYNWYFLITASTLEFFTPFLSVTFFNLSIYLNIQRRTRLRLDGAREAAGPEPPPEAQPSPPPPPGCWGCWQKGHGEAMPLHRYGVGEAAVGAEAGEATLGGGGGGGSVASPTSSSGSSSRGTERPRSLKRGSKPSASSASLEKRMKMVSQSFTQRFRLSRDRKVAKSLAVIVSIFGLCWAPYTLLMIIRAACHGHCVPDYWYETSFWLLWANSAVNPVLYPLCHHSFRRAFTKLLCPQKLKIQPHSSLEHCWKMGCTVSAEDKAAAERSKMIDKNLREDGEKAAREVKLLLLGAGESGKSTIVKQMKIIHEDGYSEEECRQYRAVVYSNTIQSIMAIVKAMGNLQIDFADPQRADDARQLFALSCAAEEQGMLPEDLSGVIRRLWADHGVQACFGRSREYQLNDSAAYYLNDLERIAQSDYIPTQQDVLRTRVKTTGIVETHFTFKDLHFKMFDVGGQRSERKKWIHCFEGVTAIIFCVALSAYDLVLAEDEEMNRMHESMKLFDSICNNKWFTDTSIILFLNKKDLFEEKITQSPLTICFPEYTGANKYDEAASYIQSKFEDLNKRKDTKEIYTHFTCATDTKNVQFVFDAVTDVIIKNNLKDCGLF
As to the kind of experiment: Chimeric human H3 receptor GTP binding assay (agonist-stimulated GTP-gamma35S binding, Example 7). The assay is classed as biochemical.
Conditions: not given
The procedure, abridged: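 Sf9 membranes co-expressing the chimeric receptor and heterotrimeric G-protein subunits, 35 μg protein per tube, in pH 7.4 Tris buffer with 10 μM GDP. Test compounds at 10^−10 to 10^−6 M with 1 μM histamine, 60 min at room temperature. Filter-bound GTP-gamma^35S read by scintillation; IC50 from non-linear regression of dose-response curves.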
In general, Ki refers to a dissociation constant, usually derived from enzyme kinetics or from competition with a known ligand. With `CCC(C)N1CCN(C(=O)CN2CCN(c3ccccc3F)CC2)CC1` (stereo not drawn) [Compound 867, 1-sec-butyl-4-{[4-(2-fluorophenyl)piperazin-1-yl]acetyl}piperazine], the Ki is below 1000 nM.
In the case of `C=CCN1CCN(C(=O)CN2CCN(c3ccc(C(F)(F)F)cc3)CC2)CC1` [Compound 487, 1-allyl-4-({4-[4-(trifluoromethyl)phenyl]piperazin-1-yl}acetyl)piperazine], the Ki is below 1000 nM.

Still in this assay, the particulars now being: "*" in Ki of Table II; assay of Example 7; read-out: Ki.
For `O=C(Cc1ccccc1Oc1ccccc1)N1CCN(CC(=O)N2CCN(C3CCC3)CC2)CC1` [Compound 541, 1-cyclobutyl-4-({4-[(2-phenoxyphenyl)acetyl]piperazin-1-yl}acetyl)piperazine], the Ki is below 1000 nM.
In the case of `O=C(CN1CCC2(CC1)CN(Cc1ccccc1)c1cccnc12)N1CCN(C2CCC2)CC1` [Compound 490, 1′-benzyl-1-[2-(4-cyclobutylpiperazin-1-yl)-2-oxoethyl]-1′,2′-dihydrospiro[piperidine-4,3′-pyrrolo[3,2-b]pyridine]], the Ki is below 1000 nM.
With `CC(C)N1CCN(C(=O)CN2CCN(c3ccc(F)c(C(F)(F)F)c3)CC2)CC1` [Compound 468, 1-[4-fluoro-3-(trifluoromethyl)phenyl]-4-[2-(4-isopropylpiperazin-1-yl)-2-oxoethyl]piperazine], the Ki was below 1000 nM.

The assay is the same for the next values; noted with them: Table II "Ki", symbol "*": Ki in the assay of Example 7; read-out: Ki.
As for `Cc1cccc(-c2cnc(N3CCN(CC(=O)N4CCN(C5CCC5)CC4)CC3)cn2)c1` [Compound 924, 2-{4-[2-(4-cyclobutylpiperazin-1-yl)-2-oxoethyl]piperazin-1-yl}-5-(3-methylphenyl)pyrazine], the Ki was below 1000 nM.
On the same count and under the same terms, next, `COc1ccc(-c2ccc(N3CCN(CC(=O)N4CCN(C5CCC5)CC4)CC3)cc2)cc1C` [Compound 780, 1-cyclobutyl-4-{[4-(4′-methoxy-3′-methylbiphenyl-4-yl)piperazin-1-yl]acetyl}piperazine]: below 1000 nM.
Take `Cc1cccc(N2CCN(CC(=O)N3CCN(C4CCCCC4)CC3)CC2)c1` [Compound 821, 1-cyclohexyl-4-{[4-(3-methylphenyl)piperazin-1-yl]acetyl}piperazine]: the Ki is below 1000 nM.
For the compound `CCC(C)N1CCN(C(=O)CN2CCN(c3c(C)cccc3C)CC2)CC1` (stereo not drawn) [Compound 865, 1-sec-butyl-4-{[4-(2,6-dimethylphenyl)piperazin-1-yl]acetyl}piperazine], the Ki was below 1000 nM.
With `COc1ccc(-c2ccc(N3CCN(CC(=O)N4CCN(C5CCC5)CC4)CC3)cc2)cc1` [Compound 781, 1-cyclobutyl-4-{[4-(4′-methoxybiphenyl-4-yl)piperazin-1-yl]acetyl}piperazine], the Ki is below 1000 nM.

Staying with this assay, now noted: Table II, "*" in Ki; assay of Example 7; read-out: Ki.
Consider `COc1ccc(-c2ccc(N3CCN(CC(=O)N4CCN(C5CCC5)CC4)CC3)cc2)cc1F` [Compound 750, 1-cyclobutyl-4-{[4-(3′-fluoro-4′-methoxybiphenyl-4-yl)piperazin-1-yl]acetyl}piperazine], for which the Ki was below 1000 nM.
`CCS(=O)(=O)c1ccc(N2CCN(CC(=O)N3CCN(C4CCC4)CC3)CC2)cc1` [Compound 597, 1-cyclobutyl-4-({4-[4-(ethylsulfonyl)phenyl]piperazin-1-yl}acetyl)piperazine]: the Ki is below 1000 nM.
As for `O=C(CN1CCC(F)(c2ccccc2)CC1)N1CCN(C2CCC2)CC1` [Compound 654, 1-cyclobutyl-4-[(4-fluoro-4-phenylpiperidin-1-yl)acetyl]piperazine], the Ki was below 1000 nM.
In the case of `CCC1CCCCN1C(=O)c1ccc(N2CCN(CC(=O)N3CCN(C4CCC4)CC3)CC2)nc1` (stereo not drawn) [Compound 650, 1-cyclobutyl-4-[(4-{5-[(2-ethylpiperidin-1-yl)carbonyl]pyridin-2-yl}piperazin-1-yl)acetyl]piperazine], the Ki was below 1000 nM.
As to `Cc1ccc(-c2ccc(N3CCN(CC(=O)N4CCN(C5CCC5)CC4)CC3)cc2)cc1F` [Compound 751, 1-cyclobutyl-4-{[4-(3′-fluoro-4′-methylbiphenyl-4-yl)piperazin-1-yl]acetyl}piperazine], the Ki is below 1000 nM.
Take `CC1CCCN1C(=O)c1ccc(N2CCN(CC(=O)N3CCN(C4CCC4)CC3)CC2)cc1` (stereo not drawn) [Compound 645, 1-cyclobutyl-4-[(4-{4-[(2-methylpyrrolidin-1-yl)carbonyl]phenyl}piperazin-1-yl)acetyl]piperazine]: the inhibition constant Ki is below 1000 nM.

Staying with this assay, now noted: Table II; assay of Example 7; "*" in Ki; read-out: Ki.
In the case of `O=C(CN1CCN(c2ccc(-c3cc(F)cc(F)c3)nn2)CC1)N1CCN(C2CCC2)CC1` [Compound 1052, 3-{4-[2-(4-cyclobutylpiperazin-1-yl)-2-oxoethyl]piperazin-1-yl}-6-(3,5-difluorophenyl)pyridazine], the Ki was below 1000 nM.
With `O=C(NC1CC1)c1cccc(N2CCN(CC(=O)N3CCN(C4CCC4)CC3)CC2)c1` [Compound 1078, 3-{4-[2-(4-cyclobutylpiperazin-1-yl)-2-oxoethyl]piperazin-1-yl}-N-cyclopropylbenzamide], the Ki is below 1000 nM.
Consider `COc1ccc(C(C)C)cc1-c1cnc(N2CCN(CC(=O)N3CCN(C4CCC4)CC3)CC2)cn1` [Compound 952, 2-{4-[2-(4-cyclobutylpiperazin-1-yl)-2-oxoethyl]piperazin-1-yl}-5-(5-isopropyl-2-methoxyphenyl)pyrazine], for which the Ki is below 1000 nM.
On to `CC1CN(C(=O)c2ccc(N3CCN(CC(=O)N4CCN(C5CCC5)CC4)CC3)cc2)CC(C)O1` (stereo not drawn) [Compound 1095, 4-(4-{4-[2-(4-cyclobutylpiperazin-1-yl)-2-oxoethyl]piperazin-1-yl}benzoyl)-2,6-dimethylmorpholine], for which the Ki was below 1000 nM.
Still for that read-out and setting: for `COc1ccc(F)cc1-c1cnc(N2CCN(CC(=O)N3CCN(C4CCC4)CC3)CC2)cn1` [Compound 957, 2-{4-[2-(4-cyclobutylpiperazin-1-yl)-2-oxoethyl]piperazin-1-yl}-5-(5-fluoro-2-methoxyphenyl)pyrazine] the value was below 1000 nM; for `O=C(CN1CCN(c2ccc(C(=O)N3CCSCC3)cc2)CC1)N1CCN(C2CCC2)CC1` [Compound 1094, 4-(4-{4-[2-(4-cyclobutylpiperazin-1-yl)-2-oxoethyl]piperazin-1-yl}benzoyl) thiomorpholine], below 1000 nM.
For `CCOc1ccc(-c2ccc(N3CCN(CC(=O)N4CCN(C5CCC5)CC4)CC3)nn2)cc1` [Compound 1034, 3-{4-[2-(4-cyclobutylpiperazin-1-yl)-2-oxoethyl]piperazin-1-yl}-6-(4-ethoxyphenyl)pyridazine], the Ki is below 1000 nM.
As to `COc1ccc(N2CCN(CC(=O)N3CCN(C4CCC4)CC3)CC2)nn1` [Compound 999, 3-{4-[2-(4-cyclobutylpiperazin-1-yl)-2-oxoethyl]piperazin-1-yl}-6-methoxypyridazine], the Ki was below 1000 nM.
For the compound `Cc1ccc(N2CCN(CC(=O)N3CCN(C4CCCC4)CC3)CC2C)cc1` (stereo not drawn) [Compound 1109, 4-[2-(4-cyclopentylpiperazin-1-yl)-2-oxoethyl]-2-methyl-1-(4-methylphenyl)piperazine], the Ki is below 1000 nM.
For `CC(=O)c1ccc(N2CCN(CC(=O)N3CCN(C4CCC4)CC3)C(=O)C2)cc1` [Compound 1096, 4-(4-acetylphenyl)-1-[2-(4-cyclobutylpiperazin-1-yl)-2-oxoethyl]piperazin-2-one], the inhibitory constant (Ki) is below 1000 nM.

The assay is the same for the next values; noted with them: assay of Example 7; "*" in Ki of Table II; read-out: Ki.
Turning to `O=C(NC1CCN(CC(=O)N2CCN(C3CCC3)CC2)CC1)C1CCCCC1` [Compound 1227, N-{1-[2-(4-cyclobutylpiperazin-1-yl)-2-oxoethyl]piperidin-4-yl} cyclohexanecarboxamide], the Ki was below 1000 nM.
On to `C=CCNC(=O)c1ccc(N2CCN(CC(=O)N3CCN(C4CCC4)CC3)CC2)cc1` [Compound 1261, N-allyl-4-{4-[2-(4-cyclobutylpiperazin-1-yl)-2-oxoethyl]piperazin-1-yl}benzamide], for which the Ki was below 1000 nM.
With `O=C1CCc2cc(N3CCN(CC(=O)N4CCN(C5CCCC5)CC4)CC3)ccc21` [Compound 1160, 5-{4-[2-(4-cyclopentylpiperazin-1-yl)-2-oxoethyl]piperazin-1-yl}indan-1-one], the Ki is below 1000 nM.
Still for that read-out and setting: next, `CCCC(C)NC(=O)c1ccc(N2CCN(CC(=O)N3CCN(C4CCC4)CC3)CC2)nc1` (stereo not drawn) [Compound 1184, 6-{4-[2-(4-cyclobutylpiperazin-1-yl)-2-oxoethyl]piperazin-1-yl}-N-(1-methylbutyl)nicotinamide]: below 1000 nM; `CC(C)NC(=O)c1ccc(N2CCN(CC(=O)N3CCN(C4CCC4)CC3)CC2)cc1` [Compound 1140, 4-{4-[2-(4-cyclobutylpiperazin-1-yl)-2-oxoethyl]piperazin-1-yl}-N-isopropylbenzamide]: below 1000 nM.
`CCOC(=O)c1cccc(-c2cnc(N3CCN(CC(=O)N4CCN(C5CCC5)CC4)CC3)cn2)c1` [Compound 1195, ethyl 3-(5-{4-[2-(4-cyclobutylpiperazin-1-yl)-2-oxoethyl]piperazin-1-yl}pyrazin-2-yl)benzoate]: the Ki was below 1000 nM.

The assay is the same for the next values; noted with them: assay of Example 7; symbol * in column headed Ki of Table II; read-out: Ki.
Take `O=C(Cc1ccccc1Br)N1CCN(CC(=O)N2CCN(C3CCC3)CC2)CC1` [Compound 380, 1-[(2-bromophenyl)acetyl]-4-[2-(4-cyclobutylpiperazin-1-yl)-2-oxoethyl]piperazine]: the Ki was below 1000 nM.
`CC(=O)c1ccc(N2CCN(C(C)C(=O)N3CCN(C4CCCC4)CC3)CC2)cc1` (stereo not drawn) [Compound 323, 1-(4-{4-[2-(4-cyclopentylpiperazin-1-yl)-1-methyl-2-oxoethyl]piperazin-1-yl}phenyl)ethanone]: the Ki was below 1000 nM.
For `CCN(CC)C1CCN(CC(=O)N2CCN(C3CCCC3)CC2)C1` (stereo not drawn) [Compound 443, 1-[2-(4-cyclopentylpiperazin-1-yl)-2-oxoethyl]-N,N-diethylpyrrolidin-3-amine], the Ki is below 1000 nM.
On the same count and under the same terms, next, `CC(C)N1CCN(C(=O)CN2CCN(c3ccc(F)cc3)CC2)CC1` [Compound 361, 1-(4-fluorophenyl)-4-[2-(4-isopropylpiperazin-1-yl)-2-oxoethyl]piperazine]: below 1000 nM.

The values are drawn from patent US7851474B2, “Dipiperazinyl ketones and related analogues” (Neurogen Corporation, priority 2005, dated 2010).
